Calls of active or inactive are those of the source. The rule behind the calls is not given here.

The subject of series [1] is Artemia salina. Put plainly: Toxicity against Artemia salina (brine shrimp) up to 1 mM. The series is classed as organism-based. To be noted: in vivo.
Series [2] relates to Lactobacillus sp. Kind of series: Antimicrobial activity against Lactobacillus sp. up to 100 ug/disk. The series is classed as functional, organism-based.
Series [3] concerns Escherichia coli. Put plainly: Antimicrobial activity against Escherichia coli up to 100 ug/disk. The format is functional, organism-based.
Series [4] concerns Geotrichum candidum. Put plainly: Antimicrobial activity against Galactomyces geotrichum up to 100 ug/disk. The series is classed as functional, organism-based.
Series [5] deals with Cirsium arvense. Kind of series: Herbicidal activity against Cirsium arvense (Canada thistle) assessed induction of necrosis on leaves as 1 mM. The series is classed as functional, organism-based.

As to `COC(=O)C1=C[C@@H](O)[C@@H]2OC(=O)[C@@H](C)O[C@H]2C1` [PHYLLOSTIN], in series [1], the Activity result was “Non-toxic”. In addition, the outcome in series [2], in series [3], in series [4] and in series [5] was inactive.

`CCC(=O)C1(C)C(=O)c2c1ccc(C)c2OC(C)=O` (stereo not given) [PHYLLOSTOXIN]: in series [1], the Activity result was “Non-toxic”. Moreover, the result in series [2], in series [3] and in series [4] was inactive. The outcome in series [5] was Active.
